Like-named read-outs stand apart in the source and are kept apart here.
What was measured:
Fmr1 knock-out mice = conditions: Lim et al. 2014; cited from earlier work
[1] = target: T1, serotonin 5-HT1A receptor (Homo sapiens, UniProt P08908); conditions: Compound 2, company data
T1 sequence (P08908 1-422): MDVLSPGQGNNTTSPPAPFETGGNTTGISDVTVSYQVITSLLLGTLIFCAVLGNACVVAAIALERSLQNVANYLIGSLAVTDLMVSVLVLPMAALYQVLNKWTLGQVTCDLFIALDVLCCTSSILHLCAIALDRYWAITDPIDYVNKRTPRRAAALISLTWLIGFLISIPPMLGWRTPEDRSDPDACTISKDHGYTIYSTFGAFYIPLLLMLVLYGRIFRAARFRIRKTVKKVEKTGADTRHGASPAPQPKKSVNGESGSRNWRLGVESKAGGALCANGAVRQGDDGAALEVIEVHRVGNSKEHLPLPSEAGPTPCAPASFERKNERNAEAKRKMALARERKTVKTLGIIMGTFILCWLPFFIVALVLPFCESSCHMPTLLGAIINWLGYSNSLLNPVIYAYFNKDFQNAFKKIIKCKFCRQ

dopamine D2 receptor [2] = target: T2, dopamine D2 receptor (Homo sapiens, UniProt P14416); assay: functional activity at dopamine D2 receptor; format: biochemical; conditions: Compound 2, company data
[3] = target: T3, serotonin 5-HT2B receptor (Homo sapiens, UniProt P41595); assay: functional activity at serotonin 5-HT2B receptor; format: biochemical; conditions: Compound 2, company data
[4] = target: T1, serotonin 5-HT1A receptor; conditions: in vitro, literature; cited from earlier work
[5] = system: ASD mouse models (prenatal valproate, Cntnap2 knockout, NR1 hypomorph, BTBR); conditions: several ASD mouse models, literature; cited from earlier work
[6] = target: T1, serotonin 5-HT1A receptor; conditions: literature; cited from earlier work
[7] = system: prenatally valproate-treated mice; conditions: Hara et al. 2017, cited from earlier work
[8] = target: T3, serotonin 5-HT2B receptor; conditions: in vitro, literature; cited from earlier work
ASD patients = conditions: cited from earlier work
[9] = target: T3, serotonin 5-HT2B receptor; conditions: literature; cited from earlier work
dopamine D2 receptor [10] = target: T2, dopamine D2 receptor; conditions: cited from earlier work
dopamine D2 receptors = conditions: in vivo; cited from earlier work

T3 sequence (P41595 whole entry): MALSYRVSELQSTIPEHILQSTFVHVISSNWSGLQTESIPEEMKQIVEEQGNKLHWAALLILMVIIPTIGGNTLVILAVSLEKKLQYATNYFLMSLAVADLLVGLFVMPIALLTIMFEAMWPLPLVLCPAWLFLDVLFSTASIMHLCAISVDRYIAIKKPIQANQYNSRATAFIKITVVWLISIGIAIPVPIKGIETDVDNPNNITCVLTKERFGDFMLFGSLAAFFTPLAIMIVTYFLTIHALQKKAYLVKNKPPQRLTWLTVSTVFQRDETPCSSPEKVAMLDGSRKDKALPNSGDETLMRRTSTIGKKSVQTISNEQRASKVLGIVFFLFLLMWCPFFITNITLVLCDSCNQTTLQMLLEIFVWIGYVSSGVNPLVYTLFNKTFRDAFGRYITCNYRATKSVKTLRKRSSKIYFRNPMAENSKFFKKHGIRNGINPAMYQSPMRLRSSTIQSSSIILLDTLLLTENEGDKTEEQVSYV
T2 sequence (P14416 whole entry): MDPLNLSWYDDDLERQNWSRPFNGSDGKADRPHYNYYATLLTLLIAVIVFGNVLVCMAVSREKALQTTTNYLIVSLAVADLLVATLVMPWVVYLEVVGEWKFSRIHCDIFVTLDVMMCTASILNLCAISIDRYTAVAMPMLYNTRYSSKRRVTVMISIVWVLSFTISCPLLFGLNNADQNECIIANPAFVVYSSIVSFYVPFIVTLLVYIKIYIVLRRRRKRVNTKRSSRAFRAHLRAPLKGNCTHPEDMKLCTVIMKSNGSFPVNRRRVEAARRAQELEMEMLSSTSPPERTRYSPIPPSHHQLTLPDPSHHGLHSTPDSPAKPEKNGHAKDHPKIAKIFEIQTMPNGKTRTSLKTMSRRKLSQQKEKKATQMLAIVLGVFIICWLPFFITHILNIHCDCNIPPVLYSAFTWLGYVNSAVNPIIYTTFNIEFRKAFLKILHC

CC(N)Cc1c[nH]c2ccc(OCc3cccs3)cc12 (centres unmarked) [BW723C86]
effect on cognitive abilities (Fmr1 knock-out mice): improvement of cognitive abilities

O=C(N[C@H]1CC[C@H](CCN2CCN(c3cccc(Cl)c3Cl)CC2)CC1)N1CCOCC1 [Compound 2, trans-N-(4-{2-[4-(2,3-dichloro-phenyl)-piperazine-1-yl]-ethyl}-cyclohexyl)-morpholine-4 carboxamide]
functional character at serotonin 5-HT1A receptor [1]: weak partial agonists
functional character at dopamine D2 receptor (dopamine D2 receptor [2]): partial agonist
functional character at serotonin 5-HT2B receptor [3]: full antagonist

O=C1CCc2ccc(OCCCCN3CCN(c4cccc(Cl)c4Cl)CC3)cc2N1 [aripiprazole]
affinity for 5-HT1A receptor (in words) [4]: high affinity
effect on social behavior deficits [5]: neither aripiprazole nor risperidone could improve
functional character at serotonin 5-HT1A receptor [6]: partial agonist
effect on core behavioral deficits ([7]; acute treatment): without effect
effect on core behavioral deficits ([7]; chronic administration): improved core behavioral deficits
affinity for 5-HT2B receptor (in words) [8]: high affinity
lethargy/social withdrawal subscale of the Aberrant Behavioral Checklist (ASD patients; open label trials): did not improve

CN(C)C(=O)N[C@H]1CC[C@H](CCN2CCN(c3cccc(Cl)c3Cl)CC2)CC1 [cariprazine, trans-N-[4-[2-[4-(2,3-dichlorophenyl)piperazin-1-yl]ethyl]cyclohexyl]-N′,N′-dimethylurea]
functional character at serotonin 5-HT2B receptor [9]: full antagonist
functional character at serotonin 5-HT1A receptor [6]: weak partial agonists
intrinsic activity at serotonin 5-HT1A receptor [6]: 38%
functional character at dopamine D2 receptor (dopamine D2 receptor [10]): partial agonist

Cc1nc2n(c(=O)c1CCN1CCC(c3noc4cc(F)ccc34)CC1)CCCC2 [risperidone]
effect on social behavior deficits [5]: neither aripiprazole nor risperidone could improve
effect on core behavioral deficits ([7]; acute treatment): without effect
effect on core behavioral deficits ([7]; chronic administration): improved core behavioral deficits
occupancy of dopamine D2 receptors (dopamine D2 receptors): occupy dopamine D2 receptors
effect on core symptoms (ASD patients; children with pervasive developmental disorders with high baseline irritability): modest improvements

From patent US11547707B2, “Carbamoyl cyclohexane derivatives for treating autism spectrum disorder” (Richter Gedeon Nyrt., priority 2019, dated 2023)
